This is an account of results in patent US11629135B2 (JUBILANT PRODEL LLC, priority 2017, dated 2023).

For one data set, the target named is T1, CYP 2D6 (Homo sapiens, UniProt P10635).
T1 construct: assessed in human liver microsomes (procured from GIBCO Invitrogen); tissue GIBCO Invitrogen; host or cells: human liver microsomes
Nature of the data set: CYP inhibition in human liver microsomes (CYP2D6). It counts as in vitro ADME. The note with it: hydroxylation of bufuralol, read-out: predicted IC50, CYP 2D6. The protocol: (§1) CYP inhibition potential of compound was assessed in human liver microsomes (procured from GIBCO Invitrogen) against CYP3A4, 2D6, 2C9, 2C19 and 1A2 in the following sequential steps. Standard reaction mixture (final volume 300 μL) contained […] potassium phosphate buffer (pH 7.4), protein (0.1, 0.25, 0.5, 0.5 and 0.5 mg/mL concentration for CYP3A4, 2D6, 2C9 2C19 and 1A2 respectively) and compound (at eight different concentration levels ranging from […], added as 0.9 μL DMSO solution with a final DMSO concentration of […]). The mixtures were pre-incubated at 37±1° C. for 5 min. The reaction (in duplicate) was initiated by addition of 30 μL of NADPH (10 mM). Reaction was terminated at 10 min by adding 300 μL of acetonitrile. The activity of liver microsomes was confirmed with positive controls i.e., monitoring the hydroxylation of midazolam for CYP 3A4, hydroxylation of bufuralol for CYP 2D6, hydroxylation of diclofenac for CYP 2C9, hydroxylation of omeprazole for CYP2C19 and O-Deethylation for CYP 1A2. The reaction mixtures (obtained from the above studies) were extracted, processed and analyzed by LC-MS [Shimadzu SIL LC series (Kyoto, Japan) was coupled to an API-4000 Mass Spectrometer (MDS Sciex, Toronto, Canada)].

For data set [1], the system named is RENCA renal cancer cell line. Nature of the data set: In vivo efficacy in RENCA renal model. Details: species or system Balb/c mice. To be noted: oral dosing. The method, then: In Vivo Efficacy of Compound-45 in RENCA Renal Model (FIG. 1):
RENCA renal cancer cell line was procured from ATCC, USA and grown in the recommended media and culture conditions. Cells in the exponential phase were mixed with equal volume of matrigel in a 1:1 ratio, followed by implantation of 1×10^6 cells/100 μl subcutaneously on the right flank of immunocompetant Balb/c mice (1 site/mouse). Tumor cells were engrafted at the site of injection within 1-2 weeks of implantation and treatment was initiated by randomizing mice into study groups of N=10, when the average tumor volume reached 100 mm^3. Tumor bearing mice were treated with Vehicle (oral), Vehicle (IP), Compound B (orally at 30 mg/kg dose, twice daily) or Anti-PD-L1 mAb (Clone 10F.9G2, BioXcell) intraperitoneally at 0.1 mg/mouse, Q4D. Tumor volume and mouse body weight was measured three times per week during treatment, until the tumor volume reached a maximum of 2000 mm^3. Tumor volume (mm^3) was calculated using the formula—(tumor length)×(tumor width)^2/2. For pharmacokinetic parameters of Compound B, plasma and tumors were isolated at the end of the study and analyzed. Tumor growth inhibition was calculated after normalizing the tumor volume on a given day to that on day 1 based on the formula below: % TGI=[1−(Treatment TVFinal−Treatment TVinitial)/(Vehicle TVFinal−Vehicle TVinitial)]*100

In the next data set the target is T2, CYP3A4 (Homo sapiens, UniProt P08684).
T2 construct: assessed in human liver microsomes (procured from GIBCO Invitrogen); tissue GIBCO Invitrogen; host or cells: human liver microsomes
T2 sequence (P08684 whole entry): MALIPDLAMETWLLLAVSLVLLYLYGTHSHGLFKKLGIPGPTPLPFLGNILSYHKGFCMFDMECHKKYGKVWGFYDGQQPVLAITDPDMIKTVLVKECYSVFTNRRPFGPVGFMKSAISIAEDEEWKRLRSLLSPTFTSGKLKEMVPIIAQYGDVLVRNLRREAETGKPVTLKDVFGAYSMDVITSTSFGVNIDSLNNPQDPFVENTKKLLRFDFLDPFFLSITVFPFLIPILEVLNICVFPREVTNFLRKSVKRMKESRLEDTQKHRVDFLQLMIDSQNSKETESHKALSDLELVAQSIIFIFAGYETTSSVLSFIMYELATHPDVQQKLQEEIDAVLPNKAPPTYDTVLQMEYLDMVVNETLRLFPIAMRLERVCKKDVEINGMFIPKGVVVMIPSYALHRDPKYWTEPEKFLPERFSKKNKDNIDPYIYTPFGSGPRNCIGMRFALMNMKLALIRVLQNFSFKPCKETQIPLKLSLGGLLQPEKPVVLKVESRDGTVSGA
Nature of the data set: CYP inhibition in human liver microsomes (CYP3A4). The note with it: hydroxylation of midazolam, read-out: predicted IC50, CYP 3A4. It counts as in vitro ADME. The protocol:
as §1

Data set [2] is described as follows: Metabolic stability in liver microsomes (mouse). Type of data set: in vitro ADME. The note with it: mice liver microsomes 0.5 mg/mL, compound 1 μM, NADPH, up to 30 min. The protocol: (§2) Metabolic Stability in Liver Microsomes
(§3) Procedure: Potassium phosphate buffer (66.7 mM, pH 7.4) containing mouse or rat or dog or monkey or human liver microsomes (0.5 mg/mL) was pre-incubated separately with compound (1 μM) and positive control (verapamil, 1 μM) in a 37° C. water bath for 5 min. The reactions were initiated by adding 20 μL of 10 mM NADPH. Reactions without NADPH (0 and 30 min) were also incubated to rule out non-NADPH metabolism or chemical instability in the incubation buffer. All reactions were terminated using 200 μL of ice-cold acetonitrile containing internal standard at 0, 5, 15 and 30 min. The vials were centrifuged at 3000 rpm for 15 min. The reaction mixtures (obtained from the above studies) were extracted, processed and analyzed by LC-MS [Shimadzu SIL LC series (Kyoto, Japan) was coupled to an API-4000 Mass Spectrometer (MDS Sciex, Toronto, Canada)] to monitor the disappearance of compound.

For another data set, the target named is T3, PD-1/PD-L1 interaction (Homo sapiens, UniProt Q9NZQ7).
T3 construct: Tag1 or Tag2 (undisclosed kit tag); purchased CisBio 63ADK000CPAPEG
T3 sequence (Q9NZQ7 19-238 limits assumed): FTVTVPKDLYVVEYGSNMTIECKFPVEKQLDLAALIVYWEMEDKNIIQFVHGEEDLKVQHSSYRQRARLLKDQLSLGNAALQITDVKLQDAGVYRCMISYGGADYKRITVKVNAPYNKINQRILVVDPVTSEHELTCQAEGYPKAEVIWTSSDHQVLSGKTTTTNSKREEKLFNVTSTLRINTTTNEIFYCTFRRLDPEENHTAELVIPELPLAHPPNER
Nature of the data set: PD-1/PD-L1 Homogenous Time-Resolved Fluorescence (HTRF) binding assay. To be noted: Biochemical PD1/PD-L1 inhibition. The method in brief: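 Compounds preincubated 15 min with tagged PD-L1 and PD-1 proteins, then anti-Tag1-Eu3+ donor and anti-Tag2-XL665 acceptor added for 1 h at RT.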
Background: Time-resolved FRET reads energy transfer from a long-lived donor to a nearby acceptor.

The nature of data set [3]: Metabolic stability in liver microsomes (human). To be noted: human liver microsomes 0.5 mg/mL, compound 1 μM, NADPH, up to 30 min. It counts as in vitro ADME. The protocol: as §2, §3
In general terms: Microsomes from liver hold many membrane-bound enzymes, among them those of drug oxidation.

For a further data set, the target named is T4, CYP2C19 (Homo sapiens, UniProt P33261).
T4 construct: assessed in human liver microsomes (procured from GIBCO Invitrogen); tissue GIBCO Invitrogen; host or cells: human liver microsomes
T4 sequence (P33261 whole entry): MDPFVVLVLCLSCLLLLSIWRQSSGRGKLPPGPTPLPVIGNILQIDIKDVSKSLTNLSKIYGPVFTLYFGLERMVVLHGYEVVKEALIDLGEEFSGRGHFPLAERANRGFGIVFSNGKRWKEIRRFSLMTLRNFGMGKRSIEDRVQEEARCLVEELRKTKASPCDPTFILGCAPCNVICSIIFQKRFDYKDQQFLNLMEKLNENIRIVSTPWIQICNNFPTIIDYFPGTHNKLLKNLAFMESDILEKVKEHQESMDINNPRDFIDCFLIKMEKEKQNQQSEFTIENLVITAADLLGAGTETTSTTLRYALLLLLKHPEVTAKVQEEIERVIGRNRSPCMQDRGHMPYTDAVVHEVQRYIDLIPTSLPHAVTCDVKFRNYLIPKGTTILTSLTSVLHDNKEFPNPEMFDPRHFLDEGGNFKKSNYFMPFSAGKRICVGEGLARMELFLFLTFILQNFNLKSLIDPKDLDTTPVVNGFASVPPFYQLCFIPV
Nature of the data set: CYP inhibition in human liver microsomes (CYP2C19). Type of data set: in vitro ADME. To be noted: hydroxylation of omeprazole (CYP2C19 per method), read-out: predicted IC50, hydroxylation of omeprazole. The protocol: as §1

Each structure is given as a SMILES string.

T1 sequence (P10635 whole entry): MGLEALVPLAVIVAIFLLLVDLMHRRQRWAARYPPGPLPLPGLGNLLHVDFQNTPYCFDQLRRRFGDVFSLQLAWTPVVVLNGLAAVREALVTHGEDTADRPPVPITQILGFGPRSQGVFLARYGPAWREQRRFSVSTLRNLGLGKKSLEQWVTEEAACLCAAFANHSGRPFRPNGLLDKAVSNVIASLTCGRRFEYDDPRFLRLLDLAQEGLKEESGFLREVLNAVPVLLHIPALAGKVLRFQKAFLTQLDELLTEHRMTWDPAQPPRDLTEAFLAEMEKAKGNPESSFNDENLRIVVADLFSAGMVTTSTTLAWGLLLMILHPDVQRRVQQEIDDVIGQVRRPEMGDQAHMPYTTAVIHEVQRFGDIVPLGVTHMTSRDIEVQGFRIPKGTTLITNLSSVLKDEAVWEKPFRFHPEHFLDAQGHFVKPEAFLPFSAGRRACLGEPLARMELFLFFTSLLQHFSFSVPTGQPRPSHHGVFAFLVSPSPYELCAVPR

For the compound `COc1nc(OCc2cccc(-c3ccccc3)c2C)nc(OC)c1CN1CCCC[C@H]1C(=O)O` [Compound 45, (S)-1-((4,6-dimethoxy-2-((2-methyl-[1,1′-biphenyl]-3-yl)methoxy)pyrimidin-5-yl)methyl)piperidine-2-carboxylic acid], the IC50 (commonly the concentration that gives 50% inhibition) is greater than 10 µM on CYP 2D6, greater than 10 µM at CYP3A4, less than 0.1 µM at PD-1/PD-L1 interaction and greater than 10 µM at CYP2C19. Moreover, the “body weight during the dosing regimen” value in data set [1] (RENCA tumor bearing Balb/c mice) is “no significant body weight reduction”. In addition, the “efficacy in RENCA renal model (tumor growth)” value in data set [1] (syngeneic Balb/c mice, 30 mg/kg twice daily, comparator Anti-PD-L1 mAb 0.1 mg/mouse IP Q4D) was “better or similar efficacy compared to PD-L1 monoclonal antibody”. The “Metabolic stability in liver microsomes” value in data set [2] and in data set [3] was greater than 80% throughout.
